Measurements reported in paper PMC5713445, “Ergostane-Type Sterols from King Trumpet Mushroom (Pleurotus eryngii) and Their Inhibitory Effects on Aromatase” (International Journal of Molecular Sciences, 2017).

Target: T1, human recombinant aromatase (Homo sapiens, UniProt P11511)
T1 sequence (P11511 1-503): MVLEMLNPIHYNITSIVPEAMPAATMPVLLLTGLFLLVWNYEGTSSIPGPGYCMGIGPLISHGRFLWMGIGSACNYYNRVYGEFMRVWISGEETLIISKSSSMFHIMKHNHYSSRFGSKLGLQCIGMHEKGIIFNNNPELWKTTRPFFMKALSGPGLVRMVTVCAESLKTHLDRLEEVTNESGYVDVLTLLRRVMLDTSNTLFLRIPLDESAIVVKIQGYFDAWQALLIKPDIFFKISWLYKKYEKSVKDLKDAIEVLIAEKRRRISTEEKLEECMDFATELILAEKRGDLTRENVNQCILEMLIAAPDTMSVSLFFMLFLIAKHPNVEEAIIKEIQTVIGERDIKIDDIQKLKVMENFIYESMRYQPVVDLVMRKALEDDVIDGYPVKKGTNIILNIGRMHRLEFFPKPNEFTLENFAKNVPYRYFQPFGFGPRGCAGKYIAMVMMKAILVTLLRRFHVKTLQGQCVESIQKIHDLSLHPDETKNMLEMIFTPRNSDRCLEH
Test: Inhibitory assay against human recombinant aromatase (Human CYP19 + P450 Reductase SUPERSOMES, dibenzylfluorescein)
Assay type: biochemical
Details: for aromatase inhibitory activity (in words): tested at 10, 30 and 100 µM (4, 6: 1, 3 and 10 µM); for IC50: three determinations
Excerpt: Each value represents the mean ± the standard error (S.E.) of three determinations.
Dibenzylfluorescein (DBF) and Human CYP19 + P450 Reductase SUPERSOMES (human recombinant aromatase) were obtained from BD Biosciences (Heidelberg, Germany). The physical data were obtained by the following instruments: a Yanagimoto micro-melting point apparatus for melting points (uncorrected); a JASCO DIP-1000 digital polarimeter for Optical rotations; a Perkin-Elmer 1720X FTIR spectrophotometer for IR spectra; an Agilent-NMR-vnmrs600 for the ^1H and ^13C NMR spectra (^1H: 600 MHz; ^13C: 150 MHz) in CDCl3 with tetramethylsilane as the internal standard; a Hitachi M-4000H double-focusing mass spectrometer for EIMS (70 eV). Column chromatography was carried out by Silica gel (70–230 mesh, Merck, Darmstadt, Germany) and silica gel 60 (230–400 mesh, Nacalai Tesque, Inc., Kyoto, Japan). HPLC was performed by the following systems; system I: Cosmosil 5SL-II column (25 cm × 20 mm i.d.) (Nacalai Tesque, Inc.), hexane/EtOAc (5:1), 8.0 mL/min, 35 °C; system II: Shimpack PREP-ODS (25 cm × 20 mm i.d.) (Shimadzu corp., Kyoto, Japan), MeOH, 8.0 mL/min, 35 °C; system III: Cosmosil 5C18-MS-II column (25 cm × 20 mm i.d.) (Nacalai Tesque, Inc.), MeOH/H2O (95:5), flow rate, 4.0 mL/min, 35 °C; system IV: Cosmosil 5C18-MS-II column, MeOH/H2O (9:1), 4.0 mL/min, 35 °C.
Inhibitory assay against human recombinant aromatase was performed as described previously.

Row | IC50 | Compound | aromatase inhibitory activity (in words)
1 | – | 5α,6α-epoxyergost-8(14)-ene-3β,7α-diol [Compound 2] | weakly inhibited aromatase
2 | 17.3 µM | CC(C)[C@@H](C)/C=C/[C@@H](C)[C@H]1CC=C2C3=C(CC[C@@]21C)[C@@]1(C)CC[C@H](O)C[C@@]12O[C@H]2[C@@H]3O [Compound 1, (22E)-5α,6α-epoxyergosta-8,14,22-triene-3β,7β-diol] | –
3 | 66.1 µM | CC(C)[C@@H](C)/C=C/[C@@H](C)[C@H]1CC[C@H]2C3=CCC4C[C@@H](O)CC[C@]4(C)[C@H]3CC[C@]12C (stereo partly drawn) [Compound 3, (22E)-Ergosta-7,22-dien-3β-ol] | –
4 | 8.1 µM | CC(C)[C@@H](C)/C=C/[C@@H](C)[C@H]1CC[C@H]2C3=CC=C4C[C@@H](O)CC[C@]4(C)[C@H]3CC[C@]12C [Compound 4, (22E)-ergosta-5,7,22-trien-3β-ol] | comparable aromatase inhibitory activities to aminoglutethimide
5 | 33.8 µM | CC(C)[C@@H](C)/C=C/[C@@H](C)[C@H]1CC[C@H]2c3ccc4c(c3CC[C@]12C)CC[C@H](O)C4 [Compound 5, (22E)-19-norergosta-5,7,9,22-tetraen-3β-ol] | –
6 | 32.6 µM | CC(C)[C@@H](C)/C=C/[C@@H](C)[C@H]1CC[C@@H]2[C@]1(C)CC=C1[C@]23C=C[C@]2(C[C@@H](O)CC[C@]12C)OO3 [Compound 10, 9,11-dehydroergosterol peroxide] | –

Row | Compound | IC50 | aromatase inhibitory activity (in words)
7 | CO[C@@H]1C=C2[C@@H]3CC[C@H]([C@H](C)/C=C/[C@H](C)C(C)C)[C@@]3(C)CC[C@@H]2[C@@]2(C)CC[C@H](O)C[C@]12O [Compound 6, (22E)-6β-methoxyergosta-7,22-diene-3β,5α-diol] | 2.8 µM | comparable aromatase inhibitory activities to aminoglutethimide
8 | CC(C)[C@@H](C)/C=C/[C@@H](C)[C@H]1CC[C@H]2C3=CC(=O)[C@@]4(O)C[C@@H](O)CC[C@]4(C)[C@@]3(O)CC[C@]12C [Compound 7, (22E)-3β,5α,9α-trihydroxyergosta-7,22-dien-6-one] | > 100 µM | weakly inhibited aromatase
9 | CC(C)[C@@H](C)/C=C/[C@@H](C)[C@H]1CC[C@H]2C3=CC(=O)[C@@]4(O)C[C@@H](O)CC[C@]4(C)[C@H]3CC[C@]12C [Compound 8, (22E)-3β,5α-dihydroxyergosta-7,22-dien-6-one] | > 100 µM | weakly inhibited aromatase
10 | CC(C)[C@@H](C)/C=C/[C@@H](C)[C@H]1CC[C@@H]2[C@]1(C)CC[C@H]1[C@]23C=C[C@]2(C[C@@H](O)CC[C@]12C)OO3 [Compound 9, ergosterol peroxide] | > 100 µM | weakly inhibited aromatase
